We go through 13 compounds from patent publication US11752132B2, “Materials and methods for improving gastrointestinal function” (University of Florida Research Foundation, Incorporated, priority 2010, dated 2023).

For data set [1], the system named is small intestine mucosa. In words: Ussing chamber isotope flux studies, unidirectional and net flux of Na^+ and Cl^−. The class given is in vitro ADME, mice. Also on record: key to Na Flux Jms / Na Flux Jsm / Na Flux Jnet: fluxes in μmol·h^−1·cm^−2. As to the method:
(§1) Following exsanguinations, jejunal segment was obtained by excluding the distal 12 cm of small intestine adjacent to the caecum. This segment was washed and flushed in ice-cold Ringer's solution before the mucosa was stripped from the underlying muscular layers (Zhang, Ameen et al. 2007). The mucosa was mounted between the 2 halves of an Ussing-type Lucite chamber with an area of 0.30 cm^2 (P2304, Physiologic instruments, San Diego, Calif. 92128 USA), and electrical parameters were recorded using a voltage/current clamp device (VCC MC-8, Physiologic instruments, San Diego, Calif. 92128 USA) (Vidyasagar et al. 2005; Vidyasagar et al. 2004; Zhang et al. 2007; Vidyasagar and Ramakrishna 2002).
Irradiation decreases Jms in a dose-dependent manner, and results in decreased net Na^+ absorption (JNetNa). Jsm far exceeds Jms at doses 7 and 9 Gy, causing net secretion. In addition, mice stool samples became loose or poorly formed at high dose irradiation, further evidencing decreased absorption and increased secretion of electrolytes. […] Decrease in Cl^− absorption was due to decrease in JmsCl^−.
In this Example, isotope (^22Na and ^36Cl) substitution studies are performed to determine the basal Na^+ and Cl^− movement. Briefly, ^22Na and ^36Cl are added either to the mucosal or to the serosal side. 0.5 ml samples are collected from the cold side at the end of every 30 minutes. Unidirectional fluxes are calculated using standard formula, and expressed as μmol·h^−1·cm^−2. Net flux (JNet) is calculated as the difference between Jms and Jsm fluxes across tissue pairs. Experiments are performed under short-circuit conditions.

For data set [2], the system named is jejunum (HCO3^− secretion). In words: pH stat measurement of HCO3^− secretion in stripped jejunal sheets. Type of data set: cell-based, mice. The procedure: A Bi-burette TIM 856 (Radiometer Analytical SAS, Villeurbanne, France) was used to measure HCO3^− secretion in stripped jejunal sheets (Vidyasagar et al. 2005; Vidyasagar et al. 2004; Zhang et al. 2007). Automated pumps maintained a constant pH for luminal solution through the addition of 0.01 μl of 0.025 M sulfuric acid (H2SO4). Standard-to-stat pH calibration was established by adding a known quantity of H2SO4 to a weak buffering solution, which contains an increasing concentration of HCO3^− to produce a linear titration curve.
Jejunal tissues were exposed to a buffered solution on the bath side (serosal side), while the luminal side was exposed to an HCO3^− free, low-buffered solution (0.1-mM HEPES (4-(2-hydroxyethyl)-1-piperazineethanesulfonic acid) buffer, pH 7.4). The HCO3^− secretion was equivalent to the amount of acid added to the luminal solution to maintain the pH at 7.4 (or the stat pH). All experiments were performed under voltage-clamp conditions. HCO3^−-free solution was gassed with 100% O2 and HCO3^−-containing solution was gassed with 95% O2 and 5% CO2. The HCO3^− secretion was expressed as μeq h^−1·cm^−2 (Vidyasagar et al. 2005; Vidyasagar et al. 2004; Zhang et al. 2007).
After the tissue was mounted, HCO3^− secretions were initially present in the absence of bath HCO3^−, but rapidly fell towards 0 within 20-30 minutes. If bath HCO3^− was not present during the titration, the HCO3^− secretion remained close to 0. […] When inhibitors were added to the mucosal solution, the pH was adjusted and allowed to equilibrate for 30 minutes, until a steady rate of HCO3^− secretion was observed. When the inhibitor was added to the bath side, the tissue was also equilibrated for 30 minutes to achieve a steady rate of HCO3^− secretion (see Table 3).
All experiments were performed during the initial 1-hour steady-state period. 1 tissue from each animal was used for each experiment; only 1 experimental condition was studied with each tissue sample. All experiments were repeated for at least 4 times.

In data set [3] the test system is jejunal mucosa (net anion secretion). In words: Ussing chamber transepithelial short circuit current (Isc) with transport blockers/forskolin. The note with it: 0-Gy mice; 10 μM NPPB, 100 μM glibenclamide. Type of data set: cell-based, mice.
Text: To study active HCO3^− secretion, 8-week-old, non-irradiated and irradiated, male BALB/c mice were obtained from the National Cancer Institute. Mice were randomly divided into groups, and abdomens were irradiated according to the gastrointestinal acute radiation syndrome (GI ARS) model with a Shepherd Mark-I, using a ^137Cs source delivering γ-irradiation at 1.84 Gy/min. Radiation was given as a single fraction. The GI ARS model will achieve maximum radiation damage to intestinal tissues, and mimics intestinal injury during radiation therapy of pelvic or abdominal tumors.
Changes in short circuit current (Isc), both as a function of time following radiation and with increasing doses of radiation, were examined to determine the earliest time and the minimum radiation dose required to produce significant changes in Isc. These studies were approved by the University of Rochester Animal Care and Use Committee.
as §1
To determine the contribution of NKCC1 to basal Isc, 100 μM bumetanide (Sigma-Aldrich Co., USA) was added to the bath solution.
To determine whether the bumetanide-insensitive portion of Isc occurs via an apical membrane anion channel, a non-specific anion channel blocker, 5-nitro-2-(3-phenylpropylamino)-benzoic acid (Sigma-Aldrich Co., USA) (10 μM NPPB), and a specific cystic fibrosis transmembrane conductance regulator (CFTR) blocker (100 μM glibenclamide, Sigma-Aldrich Co., USA) were applied.

Data set [4] concerns mice with injury to small intestine mucosa. In words: Oral administration of candidate nutrients in radiation, chemotherapy and Crohn's disease models. The note with it: for survival: oral feeding of an irradiated subject; for effect of oral administration on small intestine healing, paracellular conductance, electrolyte absorption, survival: radiation, chemotherapy and Crohn's disease models, each amino acid. As to the method:
In a Crohn's disease model, mice are injected with anti-CD3 mAb (acute inflammatory model to mimic conditions of Crohn's disease).
The alterations of absorptive capacity of nutrients are determined using disease models with injury to small intestine mucosa, i.e., the radiation model, chemotherapy model, and the Crohn's disease model. Specifically, a candidate nutrient is orally administered to control mice and mice that received irradiation, chemotherapy, and anti-CD3 mAb, respectively. In addition, compositions containing various combinations of the candidate nutrients are orally administered.
To determine the absorptive capacity of each nutrient, bioelectric measurements are performed using an Ussing chamber. The measurements include: a) the sodium coupled-amino acid current (ISC) and changes in conductance, b) changes in saturation kinetics of each nutrient and changes in the ISC following the administration of each nutrient; and c) the electrolyte absorption studies using isotope flux studies in the presence and absence of the specific candidate nutrient.

Structures are written as SMILES.

Take `Cl` [Cl^−]: the “Cl Flux Jms” value is reported as 17.3 ± 1.1 in data set [1] (IR 0 Gy); 12.8 ± 0.9 in data set [1] (IR 1 Gy); 16.8 ± 0.7 in data set [1] (IR 3 Gy); 14.2 ± 1.2 in data set [1] (IR 5 Gy); 7.1 ± 0.5 in data set [1] (IR 7 Gy); −9.2 ± 0.8 in data set [1] (IR 9 Gy). Besides, the “Cl Flux Jnet” value is reported as 10.2 ± 0.8 in data set [1] (IR 0 Gy); 5.2 ± 0.9 in data set [1] (IR 1 Gy); 7.5 ± 0.8 in data set [1] (IR 3 Gy); 3.9 ± 0.7 in data set [1] (IR 5 Gy); 0.3 ± 0.2 in data set [1] (IR 7 Gy); −9.3 ± 0.9 in data set [1] (IR 9 Gy). For the same compound, the “Cl Flux Jsm” value amounted to 7.1 ± 0.6 in data set [1] (IR 0 Gy); 7.6 ± 1.3 in data set [1] (IR 1 Gy); 9.3 ± 0.8 in data set [1] (IR 3 Gy); 10.3 ± 0.9 in data set [1] (IR 5 Gy); 6.9 ± 0.3 in data set [1] (IR 7 Gy); 0.1 ± 0.1 in data set [1] (IR 9 Gy).

With `CS(=O)(=O)c1cc(C(=O)NC(=N)N)ccc1N1CCCCC1.Cl` [HOE694, 3-methylsulphonyl-4-piperidinobenzoyl, guanidine hydrochloride], in data set [2] (1 mM HOE694 on bath side, 8.4±0.4 without), the “cAMP-stimulated HCO3^− secretion after HOE694” value is 7.2±0.9 μeq·h^−1·cm^−2.

For the compound `O=C(O)c1cc([N+](=O)[O-])ccc1NCCCc1ccccc1` [NPPB, 5-nitro-2-(3-phenylpropylamino)-benzoic acid], the “bumetanide-insensitive Isc after mucosal addition of blocker” value in data set [3] is listed as 0.1±0.01 μeq·h^−1·cm^−2. The “forskolin-stimulated HCO3^− secretion after blocker” value in data set [2] (0 Gy + forskolin, blocker on luminal side (100 μM glibenclamide; NPPB)) is on record as 0.2±0.01 μeq·h^−1·cm^−2. Moreover, in data set [2] (3 Gy, blocker in lumen solution / mucosal addition (100 μM DIDS or glibenclamide; NPPB)), the “HCO3^− secretion” value worked out at 0.2±0.01 μeq·h^−1·cm^−2.

For the compound `[Na+]` [Na^+], the “Na Flux Jms” value in data set [1] (IR 0 Gy) was found to be 16.4 ± 0.9; in data set [1] (IR 1 Gy) it was 15.6 ± 1; in data set [1] (IR 3 Gy), 6.8 ± 0.7; in data set [1] (IR 5 Gy), 5.2 ± 0.6; in data set [1] (IR 7 Gy) it was 4.8 ± 0.4; in data set [1] (IR 9 Gy) it was 4.3 ± 0.7. Further, the “Na Flux Jnet” value in data set [1] (IR 0 Gy) is reported as 9.8 ± 0.8; in data set [1] (IR 1 Gy), 8.6 ± 0.9; in data set [1] (IR 3 Gy) it was 2.6 ± 0.5; in data set [1] (IR 5 Gy), 0.4 ± 0.2; in data set [1] (IR 7 Gy) it was −0.6 ± 0.3; in data set [1] (IR 9 Gy), −0.4 ± 0.2. The “Na Flux Jsm” value in data set [1] (IR 0 Gy) is given as 7.1 ± 0.8; in data set [1] (IR 1 Gy), 7.1 ± 1.1; in data set [1] (IR 3 Gy) it was 3.5 ± 0.3; in data set [1] (IR 5 Gy), 4.8 ± 0.4; in data set [1] (IR 7 Gy) it was 5.4 ± 0.4; in data set [1] (IR 9 Gy), 4.7 ± 0.6.

For the compound `NC(=O)C[C@H](N)C(=O)O` [asparagine], in data set [4], the survival result was “prolongs survival” and the “effect of oral administration on small intestine healing, paracellular conductance, electrolyte absorption, survival” value (“effect of oral administration” below) is on record as “improve small intestine healing, reduces paracellular conductance (thereby improving small intestine mucosal barrier mechanism), increases absorption of electrolytes, and/or improves survival in animals”.

For the compound `N[C@@H](CC(=O)O)C(=O)O` [aspartic acid], in data set [4], the survival entry is “prolongs survival” and the “effect of oral administration” value is reported as “improve small intestine healing, reduces paracellular conductance (thereby improving small intestine mucosal barrier mechanism), increases absorption of electrolytes, and/or improves survival in animals”.

On to `NCC(=O)O` [glycine], for which, in data set [4], the survival result is “prolongs survival” and the “effect of oral administration” value is reported as “improve small intestine healing, reduces paracellular conductance (thereby improving small intestine mucosal barrier mechanism), increases absorption of electrolytes, and/or improves survival in animals”.

In the case of `CC[C@H](C)[C@H](N)C(=O)O` [isoleucine], in data set [4], the survival result is “prolongs survival” and the “effect of oral administration” value is on record as “improve small intestine healing, reduces paracellular conductance (thereby improving small intestine mucosal barrier mechanism), increases absorption of electrolytes, and/or improves survival in animals”.

With `N[C@@H](CO)C(=O)O` [serine], in data set [4], the survival result is “prolongs survival” and the “effect of oral administration” value is recorded as “improve small intestine healing, reduces paracellular conductance (thereby improving small intestine mucosal barrier mechanism), increases absorption of electrolytes, and/or improves survival in animals”.

As for `C[C@@H](O)[C@H](N)C(=O)O` [threonine], in data set [4], the survival result is “prolongs survival” and the “effect of oral administration” value is listed as “improve small intestine healing, reduces paracellular conductance (thereby improving small intestine mucosal barrier mechanism), increases absorption of electrolytes, and/or improves survival in animals”.

Take `N[C@@H](Cc1c[nH]c2ccccc12)C(=O)O` [tryptophan]: in data set [4], the survival entry is given as “prolongs survival” and the “effect of oral administration” value is “improve small intestine healing, reduces paracellular conductance (thereby improving small intestine mucosal barrier mechanism), increases absorption of electrolytes, and/or improves survival in animals”.

Take `N[C@@H](Cc1ccc(O)cc1)C(=O)O` [tyrosine]: in data set [4], the survival entry is “prolongs survival” and the “effect of oral administration” value is listed as “improve small intestine healing, reduces paracellular conductance (thereby improving small intestine mucosal barrier mechanism), increases absorption of electrolytes, and/or improves survival in animals”.

Take `CC(C)[C@H](N)C(=O)O` [valine]: in data set [4], the survival result was “prolongs survival” and the “effect of oral administration” value is recorded as “improve small intestine healing, reduces paracellular conductance (thereby improving small intestine mucosal barrier mechanism), increases absorption of electrolytes, and/or improves survival in animals”.
